Test results as given in US4656166A, “Antibiotic compounds derived from cephalosporins, process for their production and pharmaceutical compositions” (Sanofi, priority 1983, dated 1987).
In brackets after ≈: the same amount, converted by molar mass. Where two headings read alike, the source gives them in different places.

How the values were obtained:
Assay type in all cases: cell-based
[1] = test system: Proteus vulgaris RL 99 bis; experiment: MIC, in vitro dilution method, Proteus vulgaris RL 99 bis (Table III); details: RL99BIS
Excerpt: (§1) The products of the invention have been studied as regards their pharmacological properties and, more especially, bacteriostatic action. This has been determined in vitro by the dilution method, and the study was on Gram negative strains.
(§2) Results, expressed in minimum inhibiting concentrations (MIC-- μg/ml), are collected in the following table (Table III).

[2] = test system: Proteus vulgaris GN 76/C.1; experiment: MIC on beta-lactamase producing strain Proteus vulgaris GN 76/C.1 (Table IV); details: GN76
Procedure: (§3) To evaluate the stability of these products towards beta-lactamases, their MIC was determined on isogenic strains producing and not producing beta-lactamases.
(§4) The results are expressed in μg/ml in Table IV.

[3] = test system: Serrtia liquefaciens SL 1326 S; experiment: MIC on strain not producing beta-lactamase, Serratia liquefaciens SL 1326 S (Table IV); details: SL1326S, not producing beta-lactamases
Procedure: as §3, §4

[4] = test system: Enterobacter RO 154; experiment: MIC, in vitro dilution method, Enterobacter RO 154 (Table III); details: RO154; Enterobacter RO 154; dilution method; read-out: MIC
Excerpt: as §1, §2

[5] = test system: Citrobacter RL 49; experiment: MIC, in vitro dilution method, Citrobacter RL 49 (Table III); details: RL49; Citrobacter RL 49; dilution method; read-out: MIC
Excerpt: as §1, §2

[6] = test system: Escherichia coli 255; experiment: MIC on beta-lactamase producing strain Escherichia coli 255 (Table IV); details: Escherichia coli 255, producing beta-lactamases; read-out: MIC
Procedure: as §3, §4

[7] = test system: Klebsiella RO 30; experiment: MIC, in vitro dilution method, Klebsiella RO 30 (Table III); details: RO30; Klebsiella RO 30; dilution method; read-out: MIC
Excerpt: as §1, §2

[8] = test system: Escherichia coli 255/L.7; experiment: MIC on strain not producing beta-lactamase, Escherichia coli 255/L.7 (Table IV); details: Escherichia coli 255/L.7 *, not producing beta-lactamases; read-out: MIC
Procedure: as §3, §4

[9] = test system: Escherichia coli SOL 90; experiment: MIC, in vitro dilution method, Escherichia coli SOL 90 (Table III); details: SOL90; Escherichia coli SOL 90; dilution method; read-out: MIC
Excerpt: as §1, §2

[10] = test system: Serrtia liquefaciens SL/326 A; experiment: MIC on beta-lactamase producing strain Serratia liquefaciens SL/326 A (Table IV)
Procedure: as §3, §4

[11] = test system: Pseudomonas RL 112; experiment: MIC, in vitro dilution method, Pseudomonas RL 112 (Table III); details: RL112
Excerpt: as §1, §2

[12] = test system: Serratia RL 72; experiment: MIC, in vitro dilution method, Serratia RL 72 (Table III); details: RL72
Excerpt: as §1, §2

[13] = Proteus vulgaris RL 99 bis, dilution method, read-out: MIC
[14] = Proteus vulgaris GN 76/C.1, producing beta-lactamases, read-out: MIC

SMILES | MIC [1, 13] [µg/mL] | MIC [2, 14] [µg/mL] | MIC [3] [µg/mL] | MIC [4] [µg/mL] | MIC [5] [µg/mL] | MIC [6] [µg/mL] | MIC [7] [µg/mL] | MIC [8] [µg/mL] | MIC [9] [µg/mL] | MIC [10] [µg/mL] | MIC [11] [µg/mL] | MIC [12] [µg/mL] | MIC ([1]; Proteus vulgaris) [µg/mL] | MIC ([2]; Proteus vulgaris) [µg/mL]
CNCCCC(=O)OCC1=C(C(=O)O)N2C(=O)C(NC(=O)/C(=N\OC(C)(C)C(=O)O)c3csc(N)n3)C2[S+]([O-])C1 (centres unmarked) [42 028] | ≤ 0.12 | 0.25 (≈ 0.416 µM) | ≤ 0.06 | 2 (≈ 3.33 µM) | 0.5 (≈ 0.832 µM) | 0.12 (≈ 0.2 µM) | 0.25 (≈ 0.416 µM) | 0.12 (≈ 0.2 µM) | 0.25 (≈ 0.416 µM) | 0.12 (≈ 0.2 µM) | 4 (≈ 6.66 µM) | 0.5 (≈ 0.832 µM) |  | 
CC(C)(ON=C(C(=O)NC1C(=O)N2C(C(=O)O)=C(CSC(=O)c3cccc(CN)c3)C[S+]([O-])C12)c1csc(N)n1)C(=O)O (centres unmarked) [compound 42531] |  |  | 0.0625 (≈ 0.096 µM) | 0.5 (≈ 0.768 µM) | 0.25 (≈ 0.384 µM) | 0.125 (≈ 0.192 µM) | 0.25 (≈ 0.384 µM) | 0.0625 (≈ 0.096 µM) | 0.5 (≈ 0.768 µM) | 0.125 (≈ 0.192 µM) | 8 (≈ 12.3 µM) | 0.5 (≈ 0.768 µM) | ≤ 0.125 | 0.0625 (≈ 0.096 µM)
CC(C)(ON=C(C(=O)NC1C(=O)N2C(C(=O)O)=C(CSC(=O)C3CCCNC3)C[S+]([O-])C12)c1csc(N)n1)C(=O)O (centres unmarked) [compound 42074] | 0.5 (≈ 0.795 µM) | 0.5 (≈ 0.795 µM) | 0.12 (≈ 0.191 µM) | 8 (≈ 12.7 µM) | 0.5 (≈ 0.795 µM) | 0.5 (≈ 0.795 µM) | 0.5 (≈ 0.795 µM) | 0.25 (≈ 0.398 µM) | 1 (≈ 1.59 µM) | 0.25 (≈ 0.398 µM) | 8 (≈ 12.7 µM) | 4 (≈ 6.36 µM) |  | 
CC(C)(O/N=C(\C(=O)NC1C(=O)N2C(C(=O)O)=C(COC(=O)C3(N)CCCC3)C[S+]([O-])C12)c1csc(N)n1)C(=O)O (centres unmarked) [41 975] | 0.5 (≈ 0.816 µM) | 0.5 (≈ 0.816 µM) | ≤ 0.12 | 8 (≈ 13.1 µM) | 0.5 (≈ 0.816 µM) | 0.5 (≈ 0.816 µM) | 0.5 (≈ 0.816 µM) | 0.5 (≈ 0.816 µM) | 0.25 (≈ 0.408 µM) | 0.25 (≈ 0.408 µM) | 8 (≈ 13.1 µM) | 4 (≈ 6.53 µM) |  | 
Cc1cc(C(=O)OCC2=C(C(=O)O)N3C(=O)C(NC(=O)/C(=N\OC(C)(C)C(=O)O)c4csc(N)n4)C3[S+]([O-])C2)ccc1CN (centres unmarked) [42 380] | ≤ 0.125 |  |  | ≤ 0.125 | ≤ 0.125 |  | ≤ 0.125 |  | ≤ 0.125 |  | 4 (≈ 6.17 µM) | 1 (≈ 1.54 µM) |  | 
Nc1nc(/C(=N/OC2(C(=O)O)CCC2)C(=O)NC2C(=O)N3C(C(=O)O)=C(COC(=O)CC4CCCNC4)C[S+]([O-])C23)cs1 (centres unmarked) [42 472] | ≤ 0.125 |  |  | ≤ 0.125 | ≤ 0.125 |  | ≤ 0.125 |  | 0.25 (≈ 0.391 µM) |  | 4 (≈ 6.26 µM) | 0.25 (≈ 0.391 µM) |  | 
NC[C@H]1CC[C@H](C(=O)OCC2=C(C(=O)O)N3C(=O)C(NC(=O)/C(=N\OC4(C(=O)O)CCC4)c4csc(N)n4)C3[S+]([O-])C2)CC1 (some centres unmarked) [42 212] | ≤ 0.12 |  |  | ≤ 0.12 | ≤ 0.12 |  | ≤ 0.12 |  | ≤ 0.12 |  | 4 (≈ 6.13 µM) | 0.25 (≈ 0.383 µM) |  | 
CC(C)(O/N=C(\C(=O)NC1C(=O)N2C(C(=O)O)=C(COC(=O)[C@@H](N)CCCCN)C[S+]([O-])C12)c1csc(N)n1)C(=O)O (some centres unmarked) [41 888] | 1 (≈ 1.59 µM) |  |  | 8 (≈ 12.7 µM) | 2 (≈ 3.18 µM) |  | 1 (≈ 1.59 µM) |  | 2 (≈ 3.18 µM) |  | 8 (≈ 12.7 µM) | 8 (≈ 12.7 µM) |  | 
Cc1cc(C(=O)OCC2=C(C(=O)O)N3C(=O)C(NC(=O)/C(=N\OC4(C(=O)O)CCC4)c4csc(N)n4)C3[S+]([O-])C2)ccc1CN (centres unmarked) [42 463] | ≤ 0.125 |  |  | ≤ 0.125 | ≤ 0.125 |  | ≤ 0.125 |  | ≤ 0.125 |  | 4 (≈ 6.05 µM) | 0.5 (≈ 0.757 µM) |  | 
CC(ON=C(C(=O)NC1C(=O)N2C(C(=O)O)=C(CSC(=O)C3CCNCC3)C[S+]([O-])C12)c1csc(N)n1)C(=O)O (centres unmarked) [compound 42218] | 0.5 (≈ 0.813 µM) |  |  | 0.5 (≈ 0.813 µM) | 0.25 (≈ 0.407 µM) |  | 0.5 (≈ 0.813 µM) |  | 0.5 (≈ 0.813 µM) |  | 64 (≈ 104 µM) | 2 (≈ 3.25 µM) |  | 
CC(O/N=C(\C(=O)NC1C(=O)N2C(C(=O)O)=C(COC(=O)c3ccc(CN)cc3)C[S+]([O-])C12)c1csc(N)n1)C(=O)O (centres unmarked) [42 216] | ≤ 0.12 |  |  | ≤ 0.12 | ≤ 0.12 |  | ≤ 0.12 |  | ≤ 0.12 |  | 8 (≈ 12.9 µM) | 0.5 (≈ 0.806 µM) |  | 
CC(ON=C(C(=O)NC1C(=O)N2C(C(=O)O)=C(CSC(=O)c3ccc(CN)cc3)C[S+]([O-])C12)c1csc(N)n1)C(=O)O (centres unmarked) [compound 42221] | ≤ 0.12 |  |  | 0.25 (≈ 0.393 µM) | ≤ 0.12 |  | ≤ 0.12 |  | 0.25 (≈ 0.393 µM) |  | 64 (≈ 101 µM) | 2 (≈ 3.14 µM) |  | 
